Data taken from ChEMBL document CHEMBL4130605, “7α,20-Epoxy-ent-kaurane Diterpenoids from the Aerial Parts of Isodon pharicus” (J Nat Prod, 2018).

Key:
Assay type in all cases: functional, cell-based
HL-60 = assay: Cytotoxicity against human HL60 cells after 48 hrs by MTS assay; settings: HL-60, 48 h
SMMC-7721 = assay: Cytotoxicity against human SMMC7721 cells after 48 hrs by MTS assay; settings: SMMC-7721, 48 h
A549 = assay: Cytotoxicity against human A549 cells after 48 hrs by MTS assay; settings: A549, 48 h
MCF7 = assay: Cytotoxicity against human MCF7 cells after 48 hrs by MTS assay; settings: MCF7, 48 h
SW480 = assay: Cytotoxicity against human SW480 cells after 48 hrs by MTS assay; settings: SW480, 48 h

Structure (SMILES) | IC50 (HL-60) | IC50 (SMMC-7721) | IC50 (A549) | IC50 (MCF7) | IC50 (SW480)
C=C1C(=O)[C@]23[C@H](O)[C@H]1CC[C@H]2[C@@]12CO[C@@]3(O)[C@@H](O)[C@@H]1[C@](C)(CO)CC[C@@H]2O | > 10 µM | > 10 µM | > 10 µM | > 10 µM | > 10 µM
COC[C@@H]1C(=O)[C@]23[C@H](O)[C@H]1[C@@H](O)C[C@H]2[C@]12CCC[C@@](C)(CO)[C@H]1[C@H](O)[C@]3(O)OC2 | > 10 µM | > 10 µM | > 10 µM | > 10 µM | > 10 µM
C=C1C(=O)[C@]23C[C@H]1CC[C@H]2[C@@]12CO[C@@]3(O)[C@@H](O)[C@@H]1[C@](C)(COC(C)=O)CC[C@@H]2OC(C)=O | 2.43 µM | 2.03 µM | 3.61 µM | 2.96 µM | 1.01 µM
C=C1C(=O)[C@]23C[C@H]1CC[C@H]2[C@]12CC[C@@H](O)[C@@](C)(COC(C)=O)[C@H]1[C@H](O)[C@]3(O)OC2 | 12.5 µM | 14.2 µM | 16 µM | 14.7 µM | 3.74 µM
C=C1[C@@H]2C[C@H](O)[C@H]3[C@@]45CO[C@@](O)([C@@H](O)[C@@H]4C(C)(C)CC[C@@H]5OC(C)=O)[C@]3(C2)[C@@H]1O | > 10 µM | > 10 µM | > 10 µM | > 10 µM | > 10 µM
C=C1C(=O)[C@]23[C@H](O)[C@H]1CC[C@H]2[C@]12CC[C@@H](O)[C@@](C)(COC(C)=O)[C@H]1[C@H](O)[C@]3(O)OC2 | > 10 µM | > 10 µM | > 10 µM | > 10 µM | > 10 µM
C=C1[C@@H](O)[C@]23[C@H](O)[C@H]1CC[C@H]2[C@@]12CO[C@@]3(O)[C@@H](O)[C@@H]1[C@](C)(COC(C)=O)CC[C@@H]2O | > 10 µM | > 10 µM | > 10 µM | > 10 µM | > 10 µM
C=C1C(=O)[C@]23[C@H](O)[C@H]1CC[C@H]2[C@]12CC[C@@H](O)[C@@](C)(CO)[C@H]1[C@H](O)[C@]3(O)OC2 | > 10 µM | > 10 µM | > 10 µM | > 10 µM | > 10 µM
C=C1[C@H]2C[C@@]3([C@@H]1O)[C@@H](C[C@@H]2O)[C@]12CCC[C@@](C)(COC(C)=O)[C@H]1[C@H](O)[C@]3(O)OC2 | > 10 µM | > 10 µM | > 10 µM | > 10 µM | > 10 µM
COC[C@H]1C(=O)[C@]23C[C@@H]1CC[C@H]2[C@@]12CO[C@]3(O)[C@@H](O)[C@@H]1C(C)(C)CC[C@@H]2O | 17.2 µM | 14.6 µM | 14.3 µM | 13.8 µM | 7.83 µM
C=C1C(=O)[C@]23[C@H](O)[C@H]1CC[C@H]2[C@]12CC[C@@H](OC(C)=O)[C@@](C)(CO)[C@H]1[C@H](O)[C@]3(O)OC2 | > 10 µM | > 10 µM | > 10 µM | > 10 µM | > 10 µM
C=C1C(=O)[C@]23C[C@H]1C[C@@H](OC(C)=O)[C@H]2[C@@]12CO[C@@]3(O)[C@@H](O)[C@@H]1C(C)(C)CC[C@@H]2O | 5.36 µM | 12.7 µM | 12.1 µM | 14.1 µM | 2.34 µM
C=C1C(=O)[C@]23[C@H](O)[C@H]1[C@@H](O)C[C@H]2[C@]12CCC[C@@](C)(CO)[C@H]1[C@H](O)[C@]3(O)OC2 | > 10 µM | > 10 µM | > 10 µM | > 10 µM | > 10 µM
C=C1C(=O)[C@]23[C@H](O)[C@H]1CC[C@H]2[C@@]12CO[C@@]3(O)[C@@H](O)[C@@H]1[C@](C)(COC(C)=O)CC[C@@H]2O | > 10 µM | > 10 µM | > 10 µM | > 10 µM | > 10 µM
COC[C@H]1C(=O)[C@]23C[C@H]1CC[C@H]2[C@@]12CO[C@@]3(O)[C@@H](O)[C@@H]1[C@](C)(COC(C)=O)CC[C@@H]2O (mixture of isomers) | 18 µM | 12.3 µM | 14.5 µM | 16 µM | 9.68 µM
COC[C@H]1C(=O)[C@]23[C@H](O)[C@H]1CC[C@H]2[C@@]12CO[C@@]3(O)[C@@H](O)[C@@H]1[C@](C)(CO)CC[C@@H]2O (relative stereo) | > 10 µM | > 10 µM | > 10 µM | > 10 µM | > 10 µM
C=C1[C@@H](O)[C@]23[C@H](O)[C@H]1C[C@H](OC(C)=O)[C@H]2[C@]12CCCC(C)(C)[C@H]1[C@H](O)[C@]3(O)O[C@@H]2OCC (relative stereo) | > 10 µM | > 10 µM | > 10 µM | > 10 µM | > 10 µM
C=C1[C@@H](O)[C@]23[C@H](O)[C@H]1C[C@H](OC(C)=O)[C@H]2[C@]12CCCC(C)(C)[C@H]1[C@H](O)[C@]3(O)O[C@@H]2O (relative stereo) | > 10 µM | > 10 µM | > 10 µM | > 10 µM | > 10 µM
COC[C@H]1C(=O)[C@]23[C@H](O)[C@H]1[C@@H](O)C[C@H]2[C@]12CCC[C@@](C)(COC(C)=O)[C@H]1[C@H](O)[C@]3(O)OC2 (relative stereo) | > 10 µM | > 10 µM | > 10 µM | > 10 µM | > 10 µM
COC[C@H]1C(=O)[C@]23C[C@H]1CC[C@H]2[C@@]12CO[C@@]3(O)[C@@H](O)[C@@H]1C(C)(C)CC[C@@H]2OC(C)=O (relative stereo) | 3.77 µM | 3.99 µM | 6.8 µM | 3.2 µM | 1.23 µM
C=C1[C@@H](O)[C@]23[C@H](O)[C@H]1C[C@H](OC(C)=O)[C@H]2[C@]12CCC[C@@](C)(COC(C)=O)[C@H]1[C@H](O)[C@]3(O)O[C@@H]2O (relative stereo) | > 10 µM | > 10 µM | > 10 µM | > 10 µM | > 10 µM
COC[C@@H]1C(=O)[C@]23[C@H](O)[C@H]1CC[C@H]2[C@@]12CO[C@@]3(O)[C@@H](O)[C@@H]1[C@](C)(CO)CC[C@@H]2O (relative stereo) | > 10 µM | > 10 µM | > 10 µM | > 10 µM | > 10 µM
C=C1[C@@H](O)[C@]23[C@H](O)[C@H]1C[C@H](OC(C)=O)[C@H]2[C@]12CCC[C@@](C)(COC(C)=O)[C@H]1[C@H](OC(C)=O)[C@]3(O)O[C@@H]2O (relative stereo) | 5.53 µM | 2.69 µM | 6.23 µM | 3.86 µM | 3.17 µM
COC[C@@H]1C(=O)[C@]23C[C@H]1CC[C@H]2[C@@]12CO[C@@]3(O)[C@@H](O)[C@@H]1C(C)(C)CC[C@@H]2OC(C)=O (single isomer, unassigned) | > 10 µM | > 10 µM | > 10 µM | > 10 µM | > 10 µM
CC(=O)O[C@H]1C(=O)[C@@]2(C)[C@H]([C@H](OC(=O)c3ccccc3)[C@]3(O)C[C@H](OC(=O)[C@H](O)[C@@H](NC(=O)c4ccccc4)c4ccccc4)C(C)=C1C3(C)C)[C@]1(OC(C)=O)CO[C@@H]1C[C@@H]2O [PACLITAXEL] | < 0.008 µM | < 0.008 µM | < 0.008 µM | < 0.008 µM | < 0.008 µM
C=C1C(=O)[C@]23C[C@H]1C[C@H](O)[C@H]2[C@@]12CO[C@@]3(O)C[C@@H]1C(C)(C)CC[C@@H]2O [RABDOCOETSIN C] | 4.24 µM | 9.04 µM | 9.62 µM | 5.29 µM | 1.8 µM
